Measured values reported in ChEMBL document CHEMBL2040549, “Inhibition of cap (m7GpppXm)-dependent endonuclease of influenza virus by 4-substituted 2,4-dioxobutanoic acid compounds” (Antimicrob Agents Chemother, 1994).

Molecular target: Polymerase acidic protein (Influenza A virus (A/Puerto Rico/8/1934(H1N1)), UniProt P03433)
Experiment: Inhibition of cap 1 ALMV primed Influenza transcriptase

SMILES | IC50 [µM]
O=C(CC(O)C(=O)O)c1ccccc1 (stereo not drawn) | > 500
NC(=O)/C(O)=C/C(=O)C1CCCCC1 | > 500
O=C(O)/C(O)=C/c1cc2ccccc2o1 | > 500
CC(=O)/C=C(\O)C(=O)O | 307
O=C(O)/C(O)=C/C(=O)C1CCCCC1 | 29.4
Cn1c(/C=C(\O)C(=O)O)nc2ccccc21 | > 500
CC(C)C(=O)/C=C(\O)C(=O)O | 56.7
O=C(O)/C(O)=C/c1nc2ccccc2s1 | > 500
NC(CC(=O)c1ccccc1)C(=O)O (stereo not drawn) | > 500
O=C(O)/C(O)=C/S(=O)(=O)c1ccccc1 | > 500
O=C(O)C(=O)CCc1ccccc1 | > 500
O=C(O)/C(O)=C/C(=O)C1(Cc2ccc(Cl)cc2)CCCN(S(=O)(=O)Cc2ccccc2)C1 (stereo not drawn) | 0.19
O=C(O)/C(O)=C/c1nc2ccccc2o1 | 100
